Data set [1] can be described thus: Safety and tolerability of pomalidomide in KS patients. It counts as in vivo, human. As for the experimental part: (§1) Aspirin at 81 mg daily was administered as thromboprophylaxis. Assessments were performed every 4 weeks for lymphocyte numbers, Kaposi sarcoma associated herpesvirus (KSHV/HHV8) viral load (VL) and HIV VL and at 8 weeks for T cell subsets and activation by immunophenotyping of peripheral blood mononuclear cells (PBMC). KSHV VL in PBMC and HIV VL in plasma were assayed by quantitative PCR; an ultrasensitive single copy assay was used for HIV VL. Changes from baseline were evaluated using the Wilcoxon signed rank test with P<0.005 considered significant given multiple comparisons. Differences in changes between the HIV infected and uninfected groups were evaluated using the Wilcoxon rank sum test. Median time of the patients on therapy 7 cycles (range 2-12).
Subsequent cycles commenced on day 29. In certain cases cycles were commenced when ANC was ≥1000 cells/mm3, hemoglobin≥10 g/dL, platelets≥50,000 cells/mm3 and otherwise held until these thresholds were met. […] HIV-infected patients continued baseline ART without adjustment. Prophylaxis for opportunistic infections including Pneumocystis jiroveci was administered following current guidelines.

The subject of data set [2] is Kaposi sarcoma associated herpesvirus (KSHV/HHV8). As to the kind of experiment: KSHV viral load in PBMC by quantitative real-time PCR. It counts as in vivo. As to the method:
as §1
Laboratory Assays: Lymphocyte subsets were assessed by fluorescent-activated cell sorting using the BlueOcean platform (Beckman Coulter, Carlsbad, Calif.). Plasma HIV-1 […] was evaluated using an ultrasensitive assay whose sensitivity was 1 viral copy per plasma volume. Briefly, a triplex PCR was used using a modification of a previously reported assay with three primers: one spanning the start codon of gag, one in the gag coding region, and one internal control. Samples were tested from 6 mL plasma aliquots, with 12 replicants per sample. KSHV VL in peripheral blood mononuclear cells (PBMC) was assessed by quantitative real-time PCR.
Changes in immunologic and virologic parameters were evaluated by a Wilcoxon signed rank test. Exact Wilcoxon rank sum tests were used to compare pharmacokinetic parameters at each time point and differences from baseline. All p-values are two-tailed and reported without adjustment for multiple comparisons. HRQL was analyzed using a using a mixed model repeated measures analysis for FAHI and the marginal homogeneity test for KS-specific questions
(In general: In qPCR the cycle at which signal appears reflects the starting amount.)

The nature of data set [3]: Pharmacokinetic studies: plasma concentrations of pomalidomide in KS patients (HPLC with fluorescence detection). In kind it is in vivo, human. As for the experimental part:
A non-compartmental analysis was used to calculate plasma pharmacokinetic parameters (Pharsight Corp, Mountain View, Calif.). The maximum plasma concentration (CMAX) and time to CMAX (TMAX) were recorded as observed values; the area under the plasma concentration vs time curve (AUC) was calculated using the log-linear trapezoidal method. For day 1 of cycle 1 (C1D1), the AUC extrapolated to infinity (AUCINF) was used, unless the percent extrapolated exceeded 25%, in which case AUCLAST (to the last quantifiable time point) was used. The steady-state exposure on C1D15 was calculated using AUCLAST.
Pharmacokinetic Studies were performed pre-dose on cycle 1 day 1 and day 15. Across all analyzed doses: TMAX=2.71±1.73 hrs, T1/2=7.10±2.48 hours, and CMAX=61.21±29.30 ng/mL. […] Comparing HIV infected with non-infected subjects, for CMAX at C1D1 p=0.45, at C1D15 p=0.80 at C1D15 and comparing changes from baseline p=0.91; for AUCLAST at C1D1, p=0.63; at C1D15 p=0.97 and comparing changes from baseline p=0.91.

A further data set deals with IRF4. The data set can be described thus: Western blot of IRF4 in PEL cell lines. It counts as cell-based. The conditions noted are these: BC-3, BCBL-1, JSC-1. An excerpt: In addition, the effect of the immunomodulatory drugs on KSHV down-regulation of MHC-1 during lytic activation was investigated by FACS analysis after pretreating the cells with Immunomodulatory drugs prior to lytic activation with butyrate.
Cell Culture: The PEL lines JSC-1 (John Hopkins University, Baltimore, Md.), dually infected with Epstein-Barr virus (EBV) and HHV-8, and BC-3 (ATCC, Rockville, Md.) and BCBL-1(National Institute of Health AIDS Research and Reagent Program, Rockville, Md.), harboring KSHV only, and CA-46, an uninfected cancerous B-cell line, were grown in RPMI 1640 medium (Invitrogen, Carlsbad, Calif.) supplemented with 15% fetal-bovine serum (FBS) (Thermo Scientific, Rockford, Ill.) and Pen/Strep glutamine at 37° C. with 5% CO2.
Western Blotting: At the end of an incubation period, cells were lysed and nuclear/cytoplasmic extracts were prepared using the NE-PER nuclear extraction kit (Pierce). Samples were subjected to SDS-PAGE (4 to 12% NuPAGE Tris-Bis) (Invitrogen) and transferred to nitrocellulose. The membrane was blocked with 5% w/v nonfat dry milk in 1×TBST (10 mM Tris-Hcl, […], 150 mM NaCl, and 0.05% Tween 20) overnight at 4° C. […]
Background: Immunoblotting shows a protein as a band on a membrane.

[4] abbreviates: 5 mg per day for 21 days of 28 day cycles.
[5] abbreviates: human, po, plasma, across all analyzed doses, cycle 1 day 1 and day 15, 5 mg orally.

“Also recorded” adds a separate entry of the source. Marks after values point to notes of the source that are not given here.

What is called Tmax is the time at which the peak concentration occurs. The half-life is the time in which the quantity being followed falls by half. A lower half-life goes with rapid decline. The Cmax is the maximum level reached in the sampled fluid or tissue.

On to `Nc1cccc2c1C(=O)N(C1CCC(=O)NC1=O)C2=O` (centres unmarked) [pomalidomide, 4-amino-2-(2,6-dioxopiperidin-3-yl)isoindoline-1,3-dione], for which, in data set [1] (setting [4]), the “adverse events, severity” value is reported as “generally mild, self limited, or reversible following therapy” and the dose limiting events result is “No dose limiting events”. Besides, in data set [1] (both cohorts), the tolerability entry is “well tolerated”. The “cessation of therapy for adverse effect” value in data set [1] (exacerbation of pre-existing anxiety) is recorded as “One subject ceased therapy for adverse effect”. Besides, the common adverse events result in data set [1] (generally mild and self-limited, or resolved following cessation of therapy) is “neutropenia, constipation, anemia not requiring transfusion, fatigue, and rash”. The “unplanned hospitalizations, febrile neutropenia, thromboembolic events” value in data set [1] (with aspirin 81 mg daily thromboprophylaxis) is “No unplanned hospitalizations, no febrile neutropenia, and no thromboembolic events”. In data set [2] (median change from baseline), the “KSHV VL (copies/PBMC) Change to End Therapy (Med, range)” value was 0 copies/PBMC and the “KSHV VL (copies/PBMC) Change to Week 8 (Med, range)” value was found to be 0 copies/PBMC. The “KSHV VL (copies/PBMC) Change to Week 4 (Med, range)” value in data set [2] (median change from baseline 0) was 0^† copies/PBMC. Besides, the “subjects whose KSHV VL became detectable from undetectable” value in data set [2] (week 4, 8 subjects) worked out at 35%. Also, the “subjects showing an increase in KSHV VL in PBMCs” value in data set [2] (week 4, 10 subjects) is listed as 45%. The “KSHV VL” value in data set [2] (week 4, not sustained at week 8) is recorded as “transient increase; also recorded: significant increase”. The accumulation entry in data set [3] (from day 1 to day 15) is “No evidence of accumulation”. Further, in data set [3] (human, in vivo), the “differences in pharmacokinetics by ART regimen” value is “No significant differences” and the “differences in pharmacokinetics by HIV status” value was “No significant differences”. In addition, in data set [3] (setting [5]), the Tmax turned out to be 2.71 ± 1.73 h and the half-life was 7.1 ± 2.48 h. The peak concentration (Cmax) in data set [3] (plasma, across all analyzed doses, cycle 1 day 1 and day 15, 5 mg orally) worked out at 61.21 ± 29.30 ng/mL. Further, the IRF4 expression level result with IRF4 (1 μM and 10 μM, FIGS. 4A-4D) is listed as “downregulated IRF4 in all three PEL lines”. In the data set with IRF4 (indicated concentrations for 72 hours, among three tested compounds, FIGS. 3A-3C), the IRF4 expression level result was “most effective in downregulating IRF4”.

For the origin of these results see patent publication US10001483B2, “Methods for the treatment of Kaposi's sarcoma or KSHV-induced lymphoma using immunomodulatory compounds, and uses of biomarkers” (Celgene Corporation, priority 2015, dated 2018).
